This is an account of results in patent publication US6372777B1, “Cyclic AMP-specific phosphodiesterase inhibitors” (ICOS Corporation, priority 1999, dated 2002).

For orientation: IC50 means the concentration at which inhibition is half-maximal.

The test system of one experiment is recombinant human PDE4. To be noted: reported value; read-out: IC50 with respect to recombinant human PDE4; cited from earlier work.
The target of a further experiment is T1, human recombinant PDE4 (Homo sapiens, UniProt Q07343).
T1 construct: made in house; host or cells: Saccharomyces cerevisiae BJ2-54 (strain YI23 harboring HDUN2.32, if PDE4B)
T1 sequence (Q07343 1-564 isoform Q07343-2): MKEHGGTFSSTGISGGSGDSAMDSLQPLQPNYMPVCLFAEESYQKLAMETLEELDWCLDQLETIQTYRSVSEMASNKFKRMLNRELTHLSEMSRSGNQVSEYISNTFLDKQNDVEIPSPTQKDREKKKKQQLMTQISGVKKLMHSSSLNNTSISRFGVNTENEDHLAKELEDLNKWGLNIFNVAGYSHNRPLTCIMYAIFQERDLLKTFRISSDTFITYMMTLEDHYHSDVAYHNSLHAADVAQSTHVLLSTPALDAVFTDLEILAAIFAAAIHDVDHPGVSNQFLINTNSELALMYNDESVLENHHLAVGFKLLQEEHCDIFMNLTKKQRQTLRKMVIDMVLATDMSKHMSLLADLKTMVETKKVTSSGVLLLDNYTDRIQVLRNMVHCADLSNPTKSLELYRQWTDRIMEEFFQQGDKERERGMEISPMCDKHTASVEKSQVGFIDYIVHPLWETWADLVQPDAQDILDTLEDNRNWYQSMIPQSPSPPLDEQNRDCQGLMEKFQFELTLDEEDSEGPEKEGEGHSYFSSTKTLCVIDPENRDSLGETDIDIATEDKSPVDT
The experiment can be described thus: Inhibition of human recombinant PDE4 (IC50). It counts as biochemical.

The test system of experiment [1] is human peripheral blood lymphocytes. In words: Lipopolysaccharide-stimulated TNFα release from human peripheral blood lymphocytes. It counts as cell-based. To be noted: for EC50: Homo sapiens, Lymphocyte, LPS-stimulated TNFα release, read-out: PBL/TNFα EC50. The procedure:
The compounds of structural formulae (I) and (II) also were tested for an ability to reduce TNFα secretion in human peripheral blood lymphocytes. The ability to reduce TNFα secretion is related to the EC50 values (i.e., the effective concentration of the compound capable of inhibiting 50% of the total TNFα). To assess the ability of a compound to reduce TNFα secretion in human peripheral blood lymphocytes (PBL), the following tests were performed. […] Heparinized blood (approximately 30 mL) drawn from human volunteers was mixed 1:1 with Dulbecco's modified phosphate-buffered saline. This mixture was mixed 1:1 with HISTOPAQUE and centrifuged at 1,500 rpm at room temperature without braking in the swinging bucket of a Beckman model TJ6 centrifuge. Erythrocytes were centrifuged to the bottom of the tubes, and serum remained at the surface of the tubes. A layer containing lymphocytes sedimented between the serum and HISTOPAQUE® layers, and was removed by aspiration to a fresh tube. The cells were quantified and adjusted to 3×10^6 cells/mL and a 100 μL aliquot is placed into the wells of a 96 well plate. Test compounds and RPMI media (Gibco/BRL Life Sciences) are added to each of the wells 15 minutes prior to addition of bacterial LPS ([…]). The mixture was allowed to incubate for 20 hours at 37° C. in a humidified chamber. The cells then were separated by centrifuging at 800 rpm for 5 minutes at room temperature. An aliquot of 80 µL of supernatant was transferred to a new plate or determination of TNFα concentration. TNFα protein in the cell supernatant fluids was measured using a commercially available enzyme-linked immunosorbent assay (ELISA) (CYTOSCREEN® Immunoassay Kit from Biosource International). The cell-based assay provided the following results for various compounds of the present invention. The EC50 values (i.e., effective concentration of the compound capable of inhibiting 50% of the total TNFα ) illustrate the ability of the present compounds to inhibit LPS-stimulated TNFα release from human PBL.

The next experiment has as its target T2, human recombinant PDE4B (Homo sapiens, UniProt Q07343).
T2 construct: made in house; host or cells: Saccharomyces cerevisiae, strain YI23 harboring HDUN2.32
The experiment can be described thus: PDE inhibition, PDE4B. It counts as biochemical.

The target in the next experiment is T3, PDE1A (Homo sapiens, UniProt P54750).
T3 construct: contained the complete open reading frame of PDE1A3; made in house; host or cells: baculovirus-infected Sf9 cells
The experiment can be described thus: PDE inhibition, PDE1A. It counts as biochemical.

Another experiment deals with T4, PDE1B (Homo sapiens, UniProt Q01064).
T4 construct: made in house; host or cells: Saccharomyces cerevisiae BJ2-54
In words: PDE inhibition, PDE1B. In kind it is biochemical.

The target of another experiment is T5, PDE1C (Homo sapiens, UniProt Q14123).
T5 construct: Plasmid Hcam3aBB contained the complete open reading frame of PDE1C3; made in house; host or cells: baculovirus-infected Sf9 cells
The experiment can be described thus: PDE inhibition, PDE1C. In kind it is biochemical.

A further experiment has as its target T6, PDE2 (Homo sapiens, UniProt O00408).
T6 construct: made in house; host or cells: Saccharomyces cerevisiae, strain YI34
The experiment can be described thus: PDE inhibition, PDE2. It counts as biochemical.

A further experiment deals with T7, PDE3A (Homo sapiens, UniProt Q14432).
T7 construct: Plasmid pBB-PDE3A contained the complete open reading frame of PDE3A; made in house; host or cells: baculovirus-infected Sf9 cells (washed 100,000 x g pellet, not purified)
T7 sequence (Q14432 whole entry): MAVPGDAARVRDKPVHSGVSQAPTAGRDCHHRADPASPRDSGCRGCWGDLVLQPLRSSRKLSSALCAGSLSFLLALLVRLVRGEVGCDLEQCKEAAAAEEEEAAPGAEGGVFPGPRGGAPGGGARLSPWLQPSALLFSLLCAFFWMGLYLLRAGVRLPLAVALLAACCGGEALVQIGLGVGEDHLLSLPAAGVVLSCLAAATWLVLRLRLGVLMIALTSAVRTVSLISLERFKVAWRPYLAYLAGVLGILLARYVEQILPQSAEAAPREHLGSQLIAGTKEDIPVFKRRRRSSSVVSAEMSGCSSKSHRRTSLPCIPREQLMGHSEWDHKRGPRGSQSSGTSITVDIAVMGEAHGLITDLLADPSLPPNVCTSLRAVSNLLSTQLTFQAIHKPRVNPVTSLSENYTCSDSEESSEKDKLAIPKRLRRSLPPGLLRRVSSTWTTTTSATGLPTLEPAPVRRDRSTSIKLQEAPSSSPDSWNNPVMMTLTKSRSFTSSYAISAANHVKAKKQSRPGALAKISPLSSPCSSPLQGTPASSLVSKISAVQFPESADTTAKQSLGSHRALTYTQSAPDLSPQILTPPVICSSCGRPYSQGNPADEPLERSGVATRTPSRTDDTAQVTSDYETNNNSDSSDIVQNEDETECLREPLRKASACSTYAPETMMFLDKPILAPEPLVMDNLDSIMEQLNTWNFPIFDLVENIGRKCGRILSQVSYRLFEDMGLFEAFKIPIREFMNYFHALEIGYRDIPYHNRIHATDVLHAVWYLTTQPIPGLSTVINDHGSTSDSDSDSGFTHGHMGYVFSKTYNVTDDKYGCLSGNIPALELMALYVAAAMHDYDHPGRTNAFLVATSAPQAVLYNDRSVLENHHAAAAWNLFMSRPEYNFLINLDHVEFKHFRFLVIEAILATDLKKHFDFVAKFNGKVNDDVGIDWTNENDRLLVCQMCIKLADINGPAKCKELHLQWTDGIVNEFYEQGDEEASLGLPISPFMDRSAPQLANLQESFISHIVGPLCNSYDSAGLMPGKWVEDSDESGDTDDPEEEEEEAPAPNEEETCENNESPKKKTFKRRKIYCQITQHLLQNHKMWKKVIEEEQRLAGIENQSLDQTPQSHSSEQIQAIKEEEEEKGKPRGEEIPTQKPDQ
The experiment can be described thus: PDE inhibition, PDE3A. It counts as biochemical.

In another experiment the target is T8, PDE5 (Homo sapiens, UniProt O76074).
T8 construct: made in house; host or cells: Saccharomyces cerevisiae BJ2-54
The experiment can be described thus: PDE inhibition, PDE5. In kind it is biochemical.

A further experiment addresses T9, PDE7 (Homo sapiens, UniProt Q13946).
T9 construct: made in house; host or cells: Saccharomyces cerevisiae BJ2-54
In words: PDE inhibition, PDE7. In kind it is biochemical.

Another experiment deals with serum TNFα. The experiment can be described thus: Combined mouse endotoxin-stimulated TNFα release assay (serum TNFα). It counts as in vivo, female Balb/c mice. To be noted: LPS mouse model. The procedure:
The purpose of this study was to determine the efficacy of PDE4 inhibitors in vivo in an LPS mouse model together with a determination with respect to central nervous system (CNS) side-effects manifested by a decrease in spontaneous mobility. The test animals were female Balb/c mice, having an average weight of about 20 g. The PDE4 inhibitors, formulated in 30% Cremophor® EL, were administered via intraperitoneal (i.p.) injections at doses of 0.1, 1.0, 10.0, and 100 mg/kg. Individual dose volumes (about […]) were adjusted based on the body weights measured. One hour later, 5 mg/kg LPS in a final volume of 200 μL was injected via the tail vein to each animal. Ninety minutes following the LPS treatment, the animals were bled and serum samples were collected before being stored at −70° C. until assayed. For efficacy determination, the serum samples were diluted two-fold and TNFα levels were determined using the CYTOSCREEN® Immunoassay Kit (Biosource International) The data were averaged between triplicate sample subjects for each of the tested compounds.

T2 sequence (Q07343 whole entry): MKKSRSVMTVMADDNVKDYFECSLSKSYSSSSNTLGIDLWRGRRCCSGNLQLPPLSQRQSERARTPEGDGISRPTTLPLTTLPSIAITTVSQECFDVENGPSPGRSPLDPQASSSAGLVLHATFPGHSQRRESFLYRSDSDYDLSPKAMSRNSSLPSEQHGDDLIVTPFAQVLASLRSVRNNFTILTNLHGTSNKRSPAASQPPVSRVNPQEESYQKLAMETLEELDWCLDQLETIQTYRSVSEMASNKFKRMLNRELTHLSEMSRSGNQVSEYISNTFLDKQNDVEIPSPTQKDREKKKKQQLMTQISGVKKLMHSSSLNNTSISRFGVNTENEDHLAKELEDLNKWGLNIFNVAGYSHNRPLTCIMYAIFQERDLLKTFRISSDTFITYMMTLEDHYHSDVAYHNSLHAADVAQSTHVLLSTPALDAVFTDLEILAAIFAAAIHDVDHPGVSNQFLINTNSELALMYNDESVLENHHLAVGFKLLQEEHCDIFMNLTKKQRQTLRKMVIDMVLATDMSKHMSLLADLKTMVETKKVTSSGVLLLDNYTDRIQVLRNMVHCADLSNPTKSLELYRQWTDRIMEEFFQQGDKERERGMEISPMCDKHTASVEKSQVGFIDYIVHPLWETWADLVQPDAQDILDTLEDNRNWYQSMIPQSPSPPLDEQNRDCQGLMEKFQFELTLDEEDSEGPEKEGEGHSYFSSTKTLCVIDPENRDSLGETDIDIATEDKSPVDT
T9 sequence (Q13946 whole entry): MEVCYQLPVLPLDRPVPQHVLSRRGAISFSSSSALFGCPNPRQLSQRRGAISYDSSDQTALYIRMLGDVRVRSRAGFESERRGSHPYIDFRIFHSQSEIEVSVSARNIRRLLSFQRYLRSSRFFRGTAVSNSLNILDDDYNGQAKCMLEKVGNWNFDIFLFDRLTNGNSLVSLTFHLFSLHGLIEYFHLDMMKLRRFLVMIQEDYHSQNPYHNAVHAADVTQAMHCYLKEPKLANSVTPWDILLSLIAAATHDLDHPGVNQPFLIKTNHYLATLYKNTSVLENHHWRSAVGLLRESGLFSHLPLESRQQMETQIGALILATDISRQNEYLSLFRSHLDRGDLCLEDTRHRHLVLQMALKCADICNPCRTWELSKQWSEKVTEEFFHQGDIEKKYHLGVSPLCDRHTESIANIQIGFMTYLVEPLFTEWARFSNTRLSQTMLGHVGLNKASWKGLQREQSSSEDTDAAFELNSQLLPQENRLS
T6 sequence (O00408 whole entry): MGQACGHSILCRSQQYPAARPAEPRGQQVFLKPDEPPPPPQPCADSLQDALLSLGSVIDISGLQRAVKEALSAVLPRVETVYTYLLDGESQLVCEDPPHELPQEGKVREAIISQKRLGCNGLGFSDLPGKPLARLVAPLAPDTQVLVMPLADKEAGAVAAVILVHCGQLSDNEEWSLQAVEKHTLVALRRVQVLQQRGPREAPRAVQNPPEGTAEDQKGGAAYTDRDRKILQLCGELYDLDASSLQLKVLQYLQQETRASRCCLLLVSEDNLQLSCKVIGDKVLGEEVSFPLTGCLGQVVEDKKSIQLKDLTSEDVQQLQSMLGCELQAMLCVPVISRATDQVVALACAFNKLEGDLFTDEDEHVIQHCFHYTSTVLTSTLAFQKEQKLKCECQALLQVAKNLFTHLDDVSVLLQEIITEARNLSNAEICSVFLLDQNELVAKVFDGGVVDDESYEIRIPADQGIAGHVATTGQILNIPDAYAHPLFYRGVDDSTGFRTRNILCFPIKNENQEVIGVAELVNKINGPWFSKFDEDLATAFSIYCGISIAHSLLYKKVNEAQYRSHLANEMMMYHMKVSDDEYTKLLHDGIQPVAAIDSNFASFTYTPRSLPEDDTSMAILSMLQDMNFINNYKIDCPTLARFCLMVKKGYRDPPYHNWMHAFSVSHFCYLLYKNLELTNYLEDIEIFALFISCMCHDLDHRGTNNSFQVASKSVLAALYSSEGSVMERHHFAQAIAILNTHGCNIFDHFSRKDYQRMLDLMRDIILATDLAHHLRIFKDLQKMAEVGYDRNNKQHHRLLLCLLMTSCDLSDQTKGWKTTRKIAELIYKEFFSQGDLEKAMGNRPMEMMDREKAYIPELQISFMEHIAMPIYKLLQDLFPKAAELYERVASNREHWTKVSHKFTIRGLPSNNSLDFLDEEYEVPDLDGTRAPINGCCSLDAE

Regarding `COC(=O)N1CC(c2ccc(OC)c(OC3CCCC3)c2)C(C)(C(C)=O)C1` (centres unmarked), the IC50 in the experiment on recombinant human PDE4 is roughly 0.002 µM.
Regarding `CCOC(=O)c1cc(-c2ccccc2)n(-c2cccc(Cl)c2)c1C` [Example 3, 1-(3-Chlorophenyl)-2-methyl-5-phenyl-1H-pyrrole-3-carboxylic acid ethyl ester], on human recombinant PDE4, the IC50 was found to be 0.2 µM. Moreover, in experiment [1], the EC50 was 1.5 µM.
Turning to `CCOC(=O)c1cc(C)n(-c2ccccc2)c1-c1ccccc1` [Example 21, 5-Methyl-1,2-diphenyl-1H-pyrrole-3-carboxylic acid ethyl ester], in experiment [1], the EC50 worked out at 10 µM.
Regarding `CCOC(=O)c1cc(-c2ccccc2)n(-c2cccc([N+](=O)[O-])c2)c1C` [Example 22, 2-Methyl-1-(3-nitrophenyl)-5-phenyl-1H-pyrrole-3-carboxylic acid ethyl ester], the IC50 on human recombinant PDE4 was found to be 0.15 µM; at human recombinant PDE4B, 0.15 µM; against PDE1A, 35.5 µM; against PDE1B it was 21 µM; at PDE1C, 21.8 µM; against PDE2, 4.5 µM. In addition, the values for the IC50 against PDE3A, on PDE5 and on PDE7 were 89 µM, 12.5 µM and 10.6 µM, respectively. In addition, in [1], the EC50 is 0.87 µM. For the same compound, the “% TNFα Inhibition” value is 13% in the experiment on serum TNFα (1 mg/kg i.p.), 84% in the experiment with serum TNFα (10 mg/kg i.p.) and 100% in the experiment with serum TNFα (100 mg/kg i.p.).
As for `CCOC(=O)c1cc(C)n(-c2cccc(C(=O)O)c2)c1-c1ccccc1` [Example 24, 1-(3-Carboxyphenyl)-5-methyl-2-phenyl-1H-pyrrole-3-carboxylic acid ethyl ester], the IC50 at human recombinant PDE4 amounted to 16.5 µM.
As to `CCOC(=O)c1cc(-c2ccccc2)n(-c2cccc(Br)c2)c1C` [Example 26, 1-(3-Bromophenyl)-2-methyl-5-phenyl-1H-pyrrole-3-carboxylic acid ethyl ester], the IC50 on human recombinant PDE4 was 3.07 µM.
For `CCOC(=O)c1cc(-c2ccccc2)n(-c2cccc(C(F)(F)F)c2)c1C` [Example 28, 2-Methyl-5-phenyl-1-(3-trifluoro-methylphenyl)-1H-pyrrole-3-carboxylic acid ethyl ester], the IC50 at human recombinant PDE4 was determined as 2.28 µM.
Regarding `CCOC(=O)c1cc(C)n(-c2cccc(C(F)(F)F)c2)c1-c1ccccc1` [Example 29, 5-Methyl-2-phenyl-1-(3-trifluoro-methylphenyl)-1H-pyrrole-3-carboxylic acid ethyl ester], on human recombinant PDE4, the IC50 worked out at 6.78 µM.
For the compound `CCOC(=O)c1cc(-c2ccccc2)n(Cc2cccc([N+](=O)[O-])c2)c1C` [Example 30, 2-Methyl-1-(3-nitrobenzyl)-5-phenyl-1H-pyrrole-3-carboxylic acid ethyl ester], the IC50 at human recombinant PDE4 was determined as 13.4 µM.
In the case of `CCOC(=O)c1cc(C)n(Cc2cccc([N+](=O)[O-])c2)c1-c1ccccc1` [Example 31, 5-Methyl-1-(3-nitrobenzyl)-2-phenyl-1H-pyrrole-3-carboxylic acid ethyl ester], the IC50 on human recombinant PDE4 turned out to be 5.13 µM.
As for `CCOC(=O)c1cc(C)n(-c2cccnc2)c1-c1ccccc1` [Example 32, 5-Methyl-2-phenyl-1-pyridin-3-yl-1H-pyrrole-3-carboxylic acid ethyl ester], the IC50 at human recombinant PDE4 is 13.4 µM.
For `CCOC(=O)c1cc(-c2ccccc2)n(-c2ccc([N+](=O)[O-])cc2)c1C` [Example 33, 2-Methyl-1-(4-nitrophenyl) -5-phenyl-1H-pyrrole-3-carboxylic acid ethyl ester], the IC50 at human recombinant PDE4 is 1.4 µM.
`CCOC(=O)c1cc(-c2ccccc2)n(-c2ccccc2[N+](=O)[O-])c1C` [Example 34, 2-Methyl-1-(2-nitrophenyl)-5-phenyl-1H-pyrrole-3-carboxylic acid ethyl ester]: the IC50 on human recombinant PDE4 was 1.65 µM.
`CCOC(=O)c1cc(-c2ccccc2)n(-c2ccc([N+](=O)[O-])cn2)c1C` [Example 35, 2-Methyl-1-(5-nitropyridin-2-yl)-5-phenyl-1H-pyrrole-3-carboxylic acid ethyl ester]: the IC50 at human recombinant PDE4 was 5.74 µM.
Same read-out and setting: next, `CCOC(=O)c1cc(C)n(-c2ccc([N+](=O)[O-])cc2)c1-c1ccccc1` [Example 36, 5-Methyl-1-(4-nitrophenyl)-2-phenyl-1H-pyrrole-3-carboxylic acid ethyl ester]: 110 µM.
Regarding `CCOC(=O)c1cc(C)n(-c2ccc(N)cc2)c1-c1ccccc1` [Example 37, 1-(4-Aminophenyl)-5-methyl-2-phenyl-1H-pyrrole-3-carboxylic acid ethyl ester], the IC50 at human recombinant PDE4 worked out at 16 µM.
The same measure, in the same setting: next, `CCOC(=O)c1cc(-c2ccccc2)n(-c2ccc(N)cc2)c1C` [Example 38, 1-(4-Aminophenyl)-2-methyl-5-phenyl-1H-pyrrole-3-carboxylic acid ethyl ester]: 1.3 µM; `CCOC(=O)c1cc(C)n(-c2cccc([N+](=O)[O-])c2)c1-c1ccccc1` [Example 39, 1-(3-Nitrophenyl)-5-methyl-2-phenyl-1H-pyrrole-3-carboxylic acid ethyl ester]: 0.2 µM.
As for `CCOC(=O)c1cc(C)n(-c2cccc(N)c2)c1-c1ccccc1` [Example 40, 1-(3-Aminophenyl)-5-methyl-2-phenyl-1H-pyrrole-3-carboxylic acid ethyl ester], on human recombinant PDE4, the IC50 worked out at 1.29 µM. For the same compound, the EC50 in experiment [1] was 6.72 µM.
Regarding `CCOC(=O)c1cc(-c2ccccc2)n(-c2cccc(N)c2)c1C` [Example 41, 1-(3-Aminophenyl)-2-methyl-5-phenyl-1H-pyrrole-3-carboxylic acid ethyl ester], on human recombinant PDE4, the concentration for half-maximal inhibition (IC50) worked out at 1.42 µM.
Regarding `CCOC(=O)c1cc(C)n(-c2cccc(Cl)c2Cl)c1-c1ccccc1` [Example 42, 1-(2,3-Dichlorophenyl)-5-methyl-2-phenyl-1H-pyrrole-3-carboxylic acid ethyl ester], the concentration for half-maximal inhibition (IC50) on human recombinant PDE4 was determined as 1.49 µM. Also, the EC50 in experiment [1] was determined as 100 µM.
On to `Cc1cc(C(=O)O)c(-c2ccccc2)n1-c1cccc([N+](=O)[O-])c1` [Example 43, 5-Methyl-1-(3-nitrophenyl)-2-phenyl-1H-pyrrole-3-carboxylic acid], for which, on human recombinant PDE4, the IC50 was found to be 15.6 µM.
`CCOC(=O)c1cc(C)n(-c2cc(C(F)(F)F)cc(C(F)(F)F)c2)c1-c1ccccc1` [Example 45, 1-(3,5-Bis-trifluoromethylphenyl)-5-methyl-2-phenyl-1H-pyrrole-3-carboxylic acid ethyl ester]: the IC50 on human recombinant PDE4 worked out at 194 µM.
Regarding `CCOC(=O)c1cccc(-n2c(C)cc(C(=O)OCC)c2-c2ccccc2)c1` [Example 46, 1-(3-Ethoxycarbonylphenyl)-5-methyl-2-phenyl-1H-pyrrole-3-carboxylic acid ethyl ester], the IC50 on human recombinant PDE4 was found to be 8.7 µM.
As to `COc1ccc(C2CNC(=O)C2)cc1OC1CCCC1` (centres unmarked) [Rolipram, reference compound], in experiment [1] (preliminary experiments), the “LPS-induced TNFα secretion from human lymphocytes” value is “inhibit LPS-induced TNFα secretion from human lymphocytes in a dose-dependent fashion”. Moreover, the 50% inhibitory concentration (IC50) in the experiment with recombinant human PDE4 is roughly 0.2 µM.
